# Data as given in patent US20060286105A1, “Tgf-beta antagonists combined with renin-angiotensin-aldosteron-system antagonists for treating renal insufficiency” (priority 2003, published 2006).
# Legend:
# diabetic rats [1] = experiment: Renal histology, late phase treatment (Example 9); type: in vivo, rat; details: weeks 52 to 61, 61 weeks, mean ± SE
# Description: Renal morphology was assessed as glomerulosclerosis, interstitial inflammation and tubular damage. Specifically, the removed kidneys were fixed overnight in Dubosq-Brazil, dehydrated in alcohol, and embedded in paraffin. Kidney samples were sectioned at 3-μm intervals, and the sections were stained with Masson's trichrome, hematoxylin and eosin, or periodic-acid Schiff reagent (PAS stain). […] All renal biopsies were analyzed by the same pathologist who was unaware of the nature of the experimental groups. […] Five normal rats were used as controls. Systolic blood pressure was measured every two months after diabetes induction. […] All measurements and data analysis were performed as described in Example 8.
# diabetic rats [2] = experiment: Systolic blood pressure, late phase treatment (Example 9); type: in vivo, rat; details: mean ± SE
# Description: Systolic blood pressure was measured every two months after diabetic induction by the tail cuff method. […] Five normal rats were used as controls. Systolic blood pressure was measured every two months after diabetes induction. […] All measurements and data analysis were performed as described in Example 8.
# diabetic rats [3] = experiment: Serum creatinine, late phase treatment (Example 9); type: in vivo, rat; details: weeks 52 to 61, 61 weeks, mean ± SE
# Description: Serum creatinine was measured at the end of the study by autoanalyzer (CX5 Beckman). […] Five normal rats were used as controls. Systolic blood pressure was measured every two months after diabetes induction. […] All measurements and data analysis were performed as described in Example 8.
# diabetic rats [4] = experiment: Proteinuria, early phase treatment of diabetic nephropathy (Example 8); type: in vivo, rat; details: therapy weeks 27 to 52 after STZ, 1D11 0.5 mg/kg i.p. 3x/week, enalapril 15 mg/l drinking water, FIG. 7
# Description: Male Sprague-Dawley rats with initial body weight of 250-275 g were studied. All animals were allowed free access to standard diet and tap water. Diabetes was induced by a single intravenous injection of streptozotocin (60 mg/kg body weight). The presence of diabetes was confirmed 2 days later by the measurement of the tail blood glucose level with a reflectance meter. Diabetic rats received daily evening injections of insulin in doses individually adjusted to maintain a blood glucose level between 200 and 450 mg/dl. Blood glucose levels were monitored at least once a week in all diabetic rats and occasionally in control animals for comparison.
# Diabetic rats were divided into 3 groups (n=6 each): group 1 received a control antibody, 13C4; groups 2 and 3 received 1D11 (0.5 mg/kg i.p. three times a week) or enalapril (15 mg/l in the drinking water), respectively from 27 to 52 weeks; group 4 was normal rats.
# (§1) Urinary excretion of proteins was measured in 24 hr urine samples collected in metabolic cages at baseline, 18, 27, 36, 45, and 52 weeks by the modified Coomassie blue G dye-binding assay for proteins.
# The statistical analysis was performed using the nonparametric Kruskal-Wallis test for multiple comparisons.
# diabetic rats [5] = experiment: Serum creatinine, early phase treatment (Example 8); type: in vivo, rat; details: weeks 27 to 52, 52 weeks, mean ± SE
# Description: Male Sprague-Dawley rats with initial body weight of 250-275 g were studied. All animals were allowed free access to standard diet and tap water. Diabetes was induced by a single intravenous injection of streptozotocin (60 mg/kg body weight). […] Blood glucose levels were monitored at least once a week in all diabetic rats and occasionally in control animals for comparison. […] Serum creatinine was measured at the end of the study by autoanalyzer (CX5 Beckman). The statistical analysis was performed using the nonparametric Kruskal-Wallis test for multiple comparisons.
# diabetic rats [6] = experiment: Renal histology, early phase treatment (Example 8); type: in vivo, rat; details: weeks 27 to 52, 52 weeks, mean ± SE
# Description: Male Sprague-Dawley rats with initial body weight of 250-275 g were studied. All animals were allowed free access to standard diet and tap water. Diabetes was induced by a single intravenous injection of streptozotocin (60 mg/kg body weight). […] Blood glucose levels were monitored at least once a week in all diabetic rats and occasionally in control animals for comparison. […] Renal morphology was assessed as glomerulosclerosis, interstitial inflammation and tubular damage. Specifically, the removed kidneys were fixed overnight in Dubosq-Brazil, dehydrated in alcohol, and embedded in paraffin. Kidney samples were sectioned at 3-μm intervals, and the sections were stained with Masson's trichrome, hematoxylin and eosin, or periodic-acid Schiff reagent (PAS stain). […] All renal biopsies were analyzed by the same pathologist who was unaware of the nature of the experimental groups. The statistical analysis was performed using the nonparametric Kruskal-Wallis test for multiple comparisons.
# diabetic rats [7] = experiment: Urinary albumin excretion, late phase treatment (Example 9); type: in vivo, rat; details: weeks 52 to 61, at 61 weeks, mean ± SE
# Description: Five normal rats were used as controls. Systolic blood pressure was measured every two months after diabetes induction. […] All measurements and data analysis were performed as described in Example 8.
# diabetic rats [8] = experiment: Systolic blood pressure by tail cuff, early phase treatment (Example 8); type: in vivo, rat; details: mean ± SE
# Description: (§2) Male Sprague-Dawley rats with initial body weight of 250-275 g were studied. All animals were allowed free access to standard diet and tap water. Diabetes was induced by a single intravenous injection of streptozotocin (60 mg/kg body weight). […] Blood glucose levels were monitored at least once a week in all diabetic rats and occasionally in control animals for comparison. Diabetic rats were divided into 3 groups (n=6 each): group 1 received a control antibody, 13C4; groups 2 and 3 received 1D11 (0.5 mg/kg i.p. three times a week) or enalapril (15 mg/l in the drinking water), respectively from 27 to 52 weeks; group 4 was normal rats. Systolic blood pressure was measured every two months after diabetic induction by the tail cuff method. The statistical analysis was performed using the nonparametric Kruskal-Wallis test for multiple comparisons.
# diabetic rats [9] = experiment: Proteinuria, late phase treatment of diabetic nephropathy (Example 9); type: in vivo, rat; details: therapy weeks 52 to 61 after STZ, 1D11 0.5 mg/kg i.p. 3x/week, enalapril 15 mg/l drinking water, FIG. 8
# Description: as §1
# Diabetic rats were kept as described in Example 8 and were divided into 4 groups (n=5-6 each) and given from 52 to 61 weeks after the diabetis induction the following: the irrelevant antibody 13C4; the anti-TGF-β antibody 1D11 (0.5 mg/kg i.p. three times a week); the ACE inhibitor enalapril (15 mg/l in the drinking water), or the combination of 1D11 and enalapril. Five normal rats were used as controls. Systolic blood pressure was measured every two months after diabetes induction. Urinary excretion of proteins was measured in 24 hour urine samples collected in metabolic cages at baseline, 18, 27, 36, 45, 52, and 61 weeks. All measurements and data analysis were performed as described in Example 8.
# diabetic rats [10] = experiment: Urinary albumin excretion by ELISA, early phase treatment (Example 8); type: in vivo, rat; details: weeks 27 to 52, at 52 weeks, mean ± SE
# Description: as §2, with “Systolic blood pressure was measured every two months after diabetic induction by the tail cuff method.” left out
# diabetic rats [11] = experiment: Systolic blood pressure by tail plethysmography in diabetic rats (Example 3); type: in vivo, rat; details: uninephrectomized STZ-diabetic rats; treated months 4-8; antibody 0.5 mg/kg i.p. 3x/week, lisinopril 12.5 mg/l drinking water; FIG. 2
# Description: Male Sprague-Dawley rats with initial body weights of 250 to 300 g were used in this study. Animal care and treatment were conducted in accordance with the U.S. […] All animals were housed in a room in which the temperature was kept constant on a 12-hour dark/12-hour light cycle and allowed free access to standard diet containing 20% protein by weight and tap water. The animals were subjected to unilateral nephrectomy under anaesthesia one week prior to the induction of diabetes to accelerate the onset of renal disease. The animals were rendered diabetic by a single intravenous (i.v.) injection of streptozotocin (STZ, Zanosar, Upjohn, Kalamazoo, Mich.; 60 mg/kg body weight). Food and water consumption, weight gain and the blood glucose levels were monitored to determine the degree of diabetes. The blood was obtained from the tip of the tails and analyzed by a modified glucose dehydrogenase method. […] Four months, after the induction of diabetes, animals were divided into seven groups of eight (unless otherwise indicated), which were treated for the next four months as follows: Animals were treated as described in Example 1. Systolic blood pressure at the end of the treatment period was recorded by tail plethysmography in conscious rats as described in Pfeffer et al.
# diabetic rats [12] = experiment: Glomerular sclerosis, renal histology in diabetic rats (Example 4); type: in vivo, rat; details: uninephrectomized STZ-diabetic rats; treated months 4-8; antibody 0.5 mg/kg i.p. 3x/week, lisinopril 12.5 mg/l drinking water; FIG. 3
# Description: Animals were treated as described in Example 1. At the end of the study, rat kidneys were harvested and fixed with 5% buffered formalin solution, embedded in paraffin, sectioned and stained with periodic acid-Schiff (PAS) for light microscopy analyses.
# Glomerular diameters were measured and the degree of matrix expansion and glomerular injury was assessed on a minimum of 100 glomeruli/section. The degree of glomerulosclerosis was scored as previously described (Raij et al. (1984) Kidney Int., 26:137-143). The percentage of glomerular sclerosis was determined by an unbiased, trained pathologist who recorded pathologic changes using a 0-4 scale (score of 0 indicates no damage; 1+ indicates changes affecting less than 25% of the samples; 2+ indicates changes affecting 25- 50% of the sample; 3+, changes affecting 50-75% of the sample; 4+ changes affecting 75-100% of the sample).
# TGF-β = experiment: Antigen affinity and isoform specificity of anti-TGF-β antibodies; type: binding
# Excerpt: The epitopes for 1[…] al. (1998) J. Immunol., 142:1536-1541) and CAT192 have been mapped to the C-terminal portion of mature TGF-β.
molecule,measurement,setting,value
"CCOC(=O)[C@H](CCc1ccccc1)N[C@@H](C)C(=O)N1CCC[C@H]1C(=O)O [enalapril, 1-[N-[(S)-1-carboxy-3-phenylpropyl]-L-alanyl]-L-proline-1′-ethyl ester]",Interstitial inflammation (score),diabetic rats [1]; graded 0 to 4+,0.60 ± 0.24 score
same,Tubular damage (score),diabetic rats [1]; graded 0 to 4+,0.60 ± 0.24 score
same,Glomeruli with sclerotic changes,diabetic rats [1],4.60 ± 2.19%
same,Systolic blood pressure,"diabetic rats [2]; late phase study, week 36, before therapy (given weeks 52 to 61)",158.33 ± 2.79 mmHg
same,Systolic blood pressure,"diabetic rats [2]; late phase study, week 52, start of therapy (given weeks 52 to 61)",165.00 ± 2.89 mmHg
same,Systolic blood pressure,"diabetic rats [2]; late phase treatment, weeks 52 to 61, week 61",135.00 ± 1.58**°° mmHg
same,Serum creatinine,diabetic rats [3],0.56 ± 0.07 mg/dL
same,proteinuria (in words),diabetic rats [4],similarly efficacious in reducing proteinuria
same,Serum creatinine,diabetic rats [5],0.49 ± 0.07 mg/dL
same,Interstitial inflammation (score),diabetic rats [6]; graded 0 to 4+,0.33 ± 0.21 score
same,Tubular damage (score),diabetic rats [6]; graded 0 to 4+,0.50 ± 0.22 score
same,Glomeruli with sclerotic changes,diabetic rats [6],1.53 ± 0.32° %
same,Urinary albumin excretion,diabetic rats [7],30.40 ± 15.08 mg/day
same,Systolic blood pressure,"diabetic rats [8]; early phase study, week 27, before treatment (baseline of group)",148.33 ± 2.47 mmHg
same,Systolic blood pressure,"diabetic rats [8]; early phase treatment from week 27, week 36",127.50 ± 2.81**°° mmHg
same,Systolic blood pressure,"diabetic rats [8]; early phase treatment from week 27, week 45",118.33 ± 2.47°° mmHg
same,Systolic blood pressure,"diabetic rats [8]; early phase treatment from week 27, week 52",117.50 ± 2.14°° mmHg
same,proteinuria (in words),diabetic rats [9],similarly efficacious in reducing proteinuria
same,Urinary albumin excretion,diabetic rats [10],4.70 ± 0.83*°# mg/day
"NCCCC[C@H](N[C@@H](CCc1ccccc1)C(=O)O)C(=O)N1CCC[C@H]1C(=O)O [lisinopril, 1-[N2-[(S)-1-carboxy-3-phenylpropyl]-L-lysyl]-L-proline]",systolic blood pressure at end of treatment,diabetic rats [11],limited blood pressure increase to a similar extent as 1D11
same,percentage of glomeruli with sclerotic changes (in words),diabetic rats [12],limited the percentage of glomeruli with sclerosis to a similar degree as 1D 11
"CAT192: fully human monoclonal anti-TGF-β1 antibody generated by phage display, described in WO 00/66631",Kd,TGF-β,~8.4 pM
same,TGF-β isoform binding specificity,TGF-β,specifically binds TGF-β only
same,systolic blood pressure at end of treatment,diabetic rats [11],displayed an anti-hypertensive effect
